Data on 26 molecules can be found in patent publication US20240390298A1, “CYCLOHEXYL BETA-HYDROXY ALKYL AMINES AND MEDICAL USES THEREOF” (ATROGI AB, priority 2021, published 2024).

Assay [1] relates to L6-myotubes. Kind of assay: Glucose uptake in differentiated L6-myotubes (3H-2-deoxyglucose), compared to isoproterenol. Conditions: agonist 1×10^−5 M, 50 nM 3H-2-deoxyglucose; for Emax at 10 µM: read-out: Biological example 1: glucose uptake, activity compared to that of isoproterenol. Format: cell-based. In short, it runs like this: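 Serum-starved differentiated L6 myotubes stimulated with agonist at 1×10^−5 M for 1 h 40 min, re-dosed in glucose-free medium for 20 min, then given 50 nM ^3H-2-deoxyglucose for 10 min. Uptake read by β-counting of NaOH lysates; activity expressed relative to isoproterenol.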

Assay [2] has as its system L6-myotubes. Kind of assay: Measurement of intracellular cAMP levels in differentiated L6 cells (alpha screen cAMP kit), compared to isoproterenol. The class given is cell-based. Conditions: Rattus norvegicus, L6, 0.25 h, agonist 1×10^−5 M, 15 min, read-out: Biological example 2: intracellular cAMP levels, activity compared to that of isoproterenol. In short, it runs like this: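 L6 myoblasts were differentiated into myotubes over 7 days in 2% FBS, then serum-starved overnight. Agonist at 1×10^−5 M final was applied for 15 min in HBSS with 1% BSA, 5 mM HEPES and 1 mM IBMX, pH 7.4. After ethanol extraction and lysis, cAMP was quantified by AlphaScreen, with activity expressed relative to isoproterenol.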
(In general: cAMP levels reflect the balance of adenylyl cyclase and phosphodiesterase activity.)

Counter-ions that a name gives are not always drawn.

Turning to `CC(=O)N[C@H]1CC[C@@H](CC(C)(C)NC[C@H](O)c2cccc(C(F)(F)F)n2)CC1` [Example 149, N-((1R,4s)-4-(2-(((S)-2-Hydroxy-2-(6-(trifluoromethyl)pyridin-2-yl)-ethyl)amino)-2-methylpropyl)cyclohexyl)acetamide dihydrochloride], in assay [1], the “Biological example 1: glucose uptake, activity compared to that of isoproterenol” value is reported as “+ +”. In addition, the Emax at 10 µM in assay [2] was < 25%.

`CC(C)(C[C@H]1CC[C@@H](N)CC1)NC[C@@H](O)c1cccc(C#N)n1` [Example 131, 6-((R)-2-((1-((1s,4S)-4-Aminocyclohexyl)-2-methylpropan-2-yl)amino)-1-hydroxyethyl)picolinonitrile trihydrochloride]: the “Biological example 1: glucose uptake, activity compared to that of isoproterenol” value in assay [1] was “+ +”. Further, in assay [2], the Emax at 10 µM is < 25%.

`CC(C)(C[C@H]1CC[C@H](NC(=O)OC(C)(C)C)CC1)NC[C@H](O)c1cccc(F)c1` [Example 153, tert-Butyl ((1R,4r)-4-(2-(((R)-2-(3-fluorophenyl)-2-hydroxyethyl)amino)-2-methylpropyl)cyclohexyl)carbamate]: the “Biological example 1: glucose uptake, activity compared to that of isoproterenol” value in assay [1] is reported as “+ + +”. In addition, the Emax at 10 µM in assay [2] was in the range of 25 to 50%.

On to `COC1CCC(CCC(C)(C)NC[C@H](O)c2cncc(F)c2)CC1` (stereo partly drawn) [Example 22, (R)-1-(5-Fluoropyridin-3-yl)-2-((4-((1r,4S)-4-methoxycyclohexyl)-2-methylbutan-2-yl)amino)ethan-1-ol dihydrochloride], for which the results for the Emax at 10 µM in assay [1] and in assay [2] were 25 to 50% and < 25%, respectively.

As to `COC(=O)[C@H]1CC[C@@H](CC(C)(C)NC[C@H](O)c2cccc(F)c2)CC1` [Example 103, Methyl (1S,4s)-4-(2-(((R)-2-(3-fluorophenyl)-2-hydroxyethyl)amino)-2-methylpropyl)cyclohexane-1-carboxylate], the “Biological example 1: glucose uptake, activity compared to that of isoproterenol” value in assay [1] is given as “+ + +”. The Emax at 10 µM in assay [2] is < 25%.

On to `CC(C)(C[C@H]1CC[C@H](C(=O)O)CC1)NC[C@H](O)c1cncc(F)c1` [Example 110, (1R,4r)-4-(2-(((R)-2-(5-fluoropyridin-3-yl)-2-hydroxyethyl)amino)-2-methylpropyl)cyclohexane-1-carboxylic acid acetate], for which the Emax at 10 µM in assay [1] and in assay [2] was < 25% in each case.

Turning to `CC(C)(CC[C@H]1CC[C@@H](O)CC1)NC[C@H](O)c1cncc(F)c1` [Example 66, (1R,4s)-4-(3-(((R)-2-(5-Fluoropyridin-3-yl)-2-hydroxyethyl)amino)-3-methylbutyl)cyclohexan-1-ol dihydrochloride], the “Biological example 1: glucose uptake, activity compared to that of isoproterenol” value in assay [1] was “+ +”. Moreover, the Emax at 10 µM in assay [2] was < 25%.

For the molecule `CN(C)S(=O)(=O)[C@H]1CC[C@@H](CC(C)(C)NC[C@H](O)c2cccc(F)c2)CC1.Cl` [Example 188, (1S,4s)-4-(2-(((R)-2-(3-fluorophenyl)-2-hydroxyethyl)amino)-2-methyl-propyl)-N,N-dimethylcyclohexane-1-sulfonamide hydrochloride], the “Biological example 1: glucose uptake, activity compared to that of isoproterenol” value in assay [1] is “+ + +”. In addition, the Emax at 10 µM in assay [2] lay within 25 to 50%.

Take `CS(=O)(=O)N[C@H]1CC[C@@H](CNC[C@H](O)c2cccc(F)c2)CC1` [Example 77]: the “Biological example 1: glucose uptake, activity compared to that of isoproterenol” value in assay [1] is recorded as “+ +”. Also, in assay [2], the Emax at 10 µM is < 25%.

Turning to `CO[C@H]1CC[C@@H](CC(C)(C)NC[C@H](O)c2cccc(F)c2)CC1` [Example 13, (R)-1-(3-Fluorophenyl)-2-((1-((1s,4S)-4-methoxycyclohexyl)-2-methyl-propan-2-yl)amino)ethan-1-ol], the “Biological example 1: glucose uptake, activity compared to that of isoproterenol” value in assay [1] is “+ + +”. Besides, the Emax at 10 µM in assay [2] was < 25%.

For the molecule `COC(=O)[C@H]1CC[C@H](CC(C)(C)NC[C@H](O)c2cncc(F)c2)CC1` [Example 108, Methyl (1R,4r)-4-(2-(((R)-2-(5-fluoropyridin-3-yl)-2-hydroxyethyl)amino)-2-methylpropyl)cyclohexane-1-carboxylate], the “Biological example 1: glucose uptake, activity compared to that of isoproterenol” value in assay [1] is recorded as “+ +”. The Emax at 10 µM in assay [2] was < 25%.

`O[C@@H](CNCC[C@H]1CC[C@H](O)CC1)c1cccc(F)c1` [Example 46, (1R,4r)-4-(2-(((R)-2-(3-Fluorophenyl)-2-hydroxyethyl)amino)ethyl)-cyclohexan-1-ol]: the Emax at 10 µM in assay [1] was 25 to 50%; in assay [2] it was < 25%.

Regarding `CC(=O)N[C@H]1CC[C@@H](CNC[C@H](O)c2cncc(F)c2)CC1` [Example 74, N-((1S,4s)-4-((((R)-2-(5-Fluoropyridin-3-yl)-2-hydroxyethyl)amino)-methyl)cyclohexyl)acetamide], the Emax at 10 µM in assay [1] is 25 to 50%; in assay [2] it was < 25%.

For `CC(=O)N[C@H]1CC[C@H](CC(C)(C)NC[C@@H](O)c2cccc(C#N)n2)CC1` [Example 135, N-((1R,4r)-4-(2-(((R)-2-(6-Cyanopyridin-2-yl)-2-hydroxyethyl)amino)-2-methylpropyl)cyclohexyl)acetamide], in assay [1], the “Biological example 1: glucose uptake, activity compared to that of isoproterenol” value was “+ +”. Further, the Emax at 10 µM in assay [2] was < 25%.

`CC(C)(NC[C@H](O)c1cncc(F)c1)[C@H]1CC[C@@H](OCc2ccccc2)CC1` [Example 35, (R)-2-((2-((1s,4S)-4-(Benzyloxy)cyclohexyl)propan-2-yl)amino)-1-(5-fluoropyridin-3-yl)ethan-1-ol]: in assay [1], the “Biological example 1: glucose uptake, activity compared to that of isoproterenol” value is “+ +”. Further, the Emax at 10 µM in assay [2] is < 25%.

`CO[C@H]1CCC[C@@H](C(C)(C)NC[C@H](O)c2cccc(F)c2)C1` (single isomer, unassigned) [Example 120]: in assay [1], the “Biological example 1: glucose uptake, activity compared to that of isoproterenol” value was “+ + +”. Further, the Emax at 10 µM in assay [2] was < 25%.

On to `COC(=O)[C@H]1CC[C@H](CCC(C)(C)NC[C@H](O)c2cccc(F)c2)CC1` [Example 115, Methyl (1R,4r)-4-(3-(((R)-2-(3-fluorophenyl)-2-hydroxyethyl)amino)-3-methylbutyl)cyclohexane-1-carboxylate], for which, in assay [1], the “Biological example 1: glucose uptake, activity compared to that of isoproterenol” value was “+ + +”. Moreover, the Emax at 10 µM in assay [2] was < 25%.

Take `COC1CCC(CCCNC[C@H](O)c2cncc(F)c2)CC1` (stereo partly drawn) [Example 18, (R)-1-(5-Fluoropyridin-3-yl)-2-((3-((1r,4S)-4-methoxycyclohexyl)propyl)-amino)ethan-1-ol]: the Emax at 10 µM in assay [1] and in assay [2] was < 25% each time.

On to `CC(C)(NC[C@H](O)c1cncc(F)c1)[C@H]1CC[C@H](OCC(=O)O)CC1` [Example 127, 2-(((1R,4r)-4-(2-(((R)-2-(5-Fluoropyridin-3-yl)-2-hydroxyethyl)amino)-propan-2-yl)cyclohexyl)oxy)acetic acid], for which, in assay [1], the “Biological example 1: glucose uptake, activity compared to that of isoproterenol” value was “+ +”. Besides, the Emax at 10 µM in assay [2] was < 25%.

`CC(=O)N[C@H]1CC[C@@H](CC(C)(C)NC[C@H](O)c2cccnc2C)CC1` [Example 143, N-((1S,4s)-4-(2-(((R)—H-hydroxy-2-(2-methylpyridin-3-yl)ethyl)amino)-2-methylpropyl)cyclohexyl)acetamide dihydrochloride]: the “Biological example 1: glucose uptake, activity compared to that of isoproterenol” value in assay [1] is “+ + +”. The Emax at 10 µM in assay [2] was < 25%.

In the case of `O=C(N[C@H]1CC[C@@H](CNC[C@H](O)c2cccc(F)c2)CC1)c1ccccc1` [Example 75, N-((1S,4s)-4-((((R)-2-(3-Fluorophenyl)-2-hydroxyethyl)amino)methyl)-cyclohexyl)benzamide], the “Biological example 1: glucose uptake, activity compared to that of isoproterenol” value in assay [1] is reported as “+ +”. Moreover, in assay [2], the Emax at 10 µM is < 25%.

As to `CC(C)(C[C@H]1CC[C@H](NS(C)(=O)=O)CC1)NC[C@@H](O)c1cccc(C#N)n1` [Example 136, N-((1R,4r)-4-(2-(((R)-2-(6-Cyanopyridin-2-yl)-2-hydroxyethyl)amino)-2-methylpropyl)cyclohexyl)methanesulfonamide], the “Biological example 1: glucose uptake, activity compared to that of isoproterenol” value in assay [1] is “+ +”. Further, the Emax at 10 µM in assay [2] is < 25%.

For `CO[C@H]1CC[C@H](CC(C)(C)NC[C@H](O)c2cncc(F)c2)CC1` [Example 16, (R)-1-(5-Fluoropyridin-3-yl)-2-((1-((1r,4R)-4-methoxycyclohexyl)-2-methyl-propan-2-yl)amino)ethan-1-ol], the “Biological example 1: glucose uptake, activity compared to that of isoproterenol” value in assay [1] is listed as “+ +”. In addition, in assay [2], the Emax at 10 µM is < 25%.

Regarding `CC(C)(CC[C@H]1CC[C@H](C(=O)O)CC1)NC[C@H](O)c1cncc(F)c1` [Example 118, (1R,4r)-4-(3-(((R)-2-(5-Fluoropyridin-3-yl)-2-hydroxyethyl)amino)-3-methylbutyl)cyclohexane-1-carboxylic acid], the values for the Emax at 10 µM in assay [1] and in assay [2] were 25 to 50% and < 25%, respectively.

For `CC(C)(C[C@H]1CC[C@@H](NS(C)(=O)=O)CC1)NC[C@@H](O)c1cccc(C#N)n1` [Example 138, N-((1S,4s)-4-(2-(((R)-2-(6-Cyanopyridin-2-yl)-2-hydroxyethyl)amino)-2-methylpropyl)cyclohexyl)methanesulfonamide], the “Biological example 1: glucose uptake, activity compared to that of isoproterenol” value in assay [1] is given as “+ +”. For the same molecule, the Emax at 10 µM in assay [2] is < 25%.

For the molecule `CC(C)(C[C@H]1CC[C@@H](C(=O)O)CC1)NC[C@H](O)c1cncc(F)c1` [Example 106, (1S,4s)-4-(2-(((R)-2-(5-Fluoropyridin-3-yl)-2-hydroxyethyl)amino)-2-methylpropyl)cyclohexane-1-carboxylic acid], the Emax at 10 µM in assay [1] is 25 to 50%; in assay [2] it was < 25%.
